Laboratory results taken from US11590139B2, “Substituted aminopurine compounds, compositions thereof, and methods of treatment therewith” (Signal Pharmaceuticals, LLC, priority 2014, dated 2023).
pIC50: −log10 of the molar value. Like-named read-outs stand apart in the source and are kept apart here.

Tested on: Lox-IMVI melanoma cell line
Assay: Lox-IMVI anti-proliferative assay (growth inhibition, Cell Titer-Glo)
Type: cell-based, human
How it was run: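 Lox-IMVI cells in RPMI+10% FBS exposed 72 h at 37 °C to 10-point, 3-fold dilutions (0.5 nM–10 μM; 0.2% DMSO final), in duplicate. Viability by Cell Titer-Glo luminescence, with a t0 cell-number reading; data as % of DMSO control; IC50 from a four-parameter logistic fit.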

[1] = Homo sapiens, Lox-IMVI melanoma cell line, anti-proliferative assay, read-out: Activity (IC50 activity level)
[2] = Homo sapiens, Lox-IMVI anti-proliferative assay, cell-based, read-out: Activity (IC50 activity level)

| pIC50 [1] | Molecule | also measured |
| --- | --- | --- |
| < 6.00 | Cc1ccc(S(=O)(=O)N2CCC[C@@H](Nc3ncc4nc(Nc5c(F)cc(Cl)cc5F)n([C@H]5CC[C@@H](C(N)=O)CC5)c4n3)C2)cc1 [Example 792, (1S,4s)-4-(8-(4-chloro-2,6-difluorophenylamino)-2-((R)-1-tosylpiperidin-3-ylamino)-9H-purin-9-yl)cyclohexanecarboxamide] |  |
| < 6.00 | Cc1ccc(S(=O)(=O)N2CCC[C@@H](Nc3ncc4nc(Nc5c(F)cc(Cl)cc5Cl)n([C@H]5CC[C@@H](C(N)=O)CC5)c4n3)C2)cc1 [Example 793, (1S,4s)-4-(8-(2,4-dichloro-6-fluorophenylamino)-2-((R)-1-tosylpiperidin-3-ylamino)-9H-purin-9-yl)cyclohexanecarboxamide] |  |
| < 6.00 | Cc1ccc(S(=O)(=O)N2CCC[C@@H](Nc3ncc4nc(Nc5c(Cl)cc(F)cc5Cl)n([C@H]5CC[C@@H](C(N)=O)CC5)c4n3)C2)cc1 [Example 794, (1S,4s)-4-(8-(2,6-dichloro-4-fluorophenylamino)-2-((R)-1-tosylpiperidin-3-ylamino)-9H-purin-9-yl)cyclohexanecarboxamide] |  |
| < 6.00 | Cc1ccc(S(=O)(=O)N2CCC[C@@H](Nc3ncc4nc(Nc5c(F)cc(C#N)cc5Cl)n([C@H]5CC[C@@H](C(N)=O)CC5)c4n3)C2)cc1 [Example 795, (1S,4s)-4-(8-(2-chloro-4-cyano-6-fluorophenylamino)-2-((R)-1-tosylpiperidin-3-ylamino)-9H-purin-9-yl)cyclohexanecarboxamide] |  |
| < 6.00 | CNC(=O)N1CCC[C@@H](Nc2ncc3nc(Nc4c(Cl)cc(C(F)(F)F)cc4Cl)n([C@H]4CC[C@@H](C(N)=O)CC4)c3n2)C1 [Example 796, (R)-3-(9-((1s,4S)-4-carbamoylcyclohexyl)-8-(2,6-dichloro-4-(trifluoromethyl)phenylamino)-9H-purin-2-ylamino)-N-methylpiperidine-1-carboxamide] |  |
| < 6.00 | CC(=O)N1CCC[C@@H](Nc2ncc3nc(Nc4c(F)cc(F)cc4Cl)n([C@H]4CC[C@@H](C(N)=O)CC4)c3n2)C1 [Example 797, (1S,4s)-4-(2-((R)-1-acetylpiperidin-3-ylamino)-8-(2-chloro-4,6-difluorophenylamino)-9H-purin-9-yl)cyclohexanecarboxamide] |  |
| < 6.00 | CC(=O)N1CCC[C@@H](Nc2ncc3nc(Nc4c(Cl)cc(C(F)(F)F)cc4Cl)n([C@H]4CC[C@@H](C(N)=O)CC4)c3n2)C1 [Example 798, (1S,4s)-4-(2-((R)-1-acetylpiperidin-3-ylamino)-8-(2,6-dichloro-4-(trifluoromethyl)phenylamino)-9H-purin-9-yl)cyclohexanecarboxamide] |  |

Continued, molecule first:

| Molecule | pIC50 [1] | also measured |
| --- | --- | --- |
| NC(=O)[C@H]1CC[C@@H](n2c(Nc3c(Cl)cc(F)cc3Cl)nc3cnc(N[C@@H]4CCCN(C(=O)Nc5ccccc5)C4)nc32)CC1 [Example 784, (R)-3-(9-((1s,4S)-4-carbamoylcyclohexyl)-8-(2,6-dichloro-4-fluorophenylamino)-9H-purin-2-ylamino)-N-phenylpiperidine-1-carboxamide] | < 6.00 |  |
| N#Cc1cc(F)c(Nc2nc3cnc(N[C@@H]4CCCN(C(=O)Nc5ccccc5)C4)nc3n2[C@H]2CC[C@@H](C(N)=O)CC2)c(Cl)c1 [Example 785, (R)-3-(9-((1s,4S)-4-carbamoylcyclohexyl)-8-(2-chloro-4-cyano-6-fluorophenylamino)-9H-purin-2-ylamino)-N-phenylpiperidine-1-carboxamide] | < 6.00 |  |
| CC1(C)COCC[C@H]1Nc1ncc2nc(Nc3c(F)cc(Cl)cc3F)n([C@H]3CC[C@@H](C(N)=O)CC3)c2n1 [Example 786, (1S,4s)-4-(8-(4-chloro-2,6-difluorophenylamino)-2-((R)-3,3-dimethyltetrahydro-2H-pyran-4-ylamino)-9H-purin-9-yl)cyclohexanecarboxamide] | < 6.00 |  |
| Cc1ccc(S(=O)(=O)N2CCC[C@@H](Nc3ncc4nc(Nc5c(F)cc(F)cc5Cl)n([C@H]5CC[C@@H](C(N)=O)CC5)c4n3)C2)cc1 [Example 787, (1S,4s)-4-(8-(2-chloro-4,6-difluorophenylamino)-2-((R)-1-tosylpiperidin-3-ylamino)-9H-purin-9-yl)cyclohexanecarboxamide] | < 6.00 |  |
| Cc1ccc(S(=O)(=O)N2CCC[C@@H](Nc3ncc4nc(Nc5c(Cl)cc(Cl)cc5Cl)n([C@H]5CC[C@@H](C(N)=O)CC5)c4n3)C2)cc1 [Example 788, (1S,4s)-4-(2-((R)-1-tosylpiperidin-3-ylamino)-8-(2,4,6-trichlorophenylamino)-9H-purin-9-yl)cyclohexanecarboxamide] | < 6.00 |  |
| Cc1ccc(S(=O)(=O)N2CCC[C@@H](Nc3ncc4nc(Nc5c(Cl)cc(C#N)cc5Cl)n([C@H]5CC[C@@H](C(N)=O)CC5)c4n3)C2)cc1 [Example 789, (1S,4s)-4-(8-(2,6-dichloro-4-cyanophenylamino)-2-((R)-1-tosylpiperidin-3-ylamino)-9H-purin-9-yl)cyclohexanecarboxamide] | < 6.00 |  |
| Cc1ccc(S(=O)(=O)N2CCC[C@@H](Nc3ncc4nc(Nc5c(F)cc(C#N)cc5F)n([C@H]5CC[C@@H](C(N)=O)CC5)c4n3)C2)cc1 [Example 790, (1S,4s)-4-(8-(4-cyano-2,6-difluorophenylamino)-2-((R)-1-tosylpiperidin-3-ylamino)-9H-purin-9-yl)cyclohexanecarboxamide] | < 6.00 |  |
| Cc1ccc(S(=O)(=O)N2CCC[C@@H](Nc3ncc4nc(Nc5c(F)cc(F)cc5F)n([C@H]5CC[C@@H](C(N)=O)CC5)c4n3)C2)cc1 [Example 791, (1S,4s)-4-(2-((R)-1-tosylpiperidin-3-ylamino)-8-(2,4,6-trifluorophenylamino)-9H-purin-9-yl)cyclohexanecarboxamide] | < 6.00 |  |
| CC(=O)N1CCC[C@@H](Nc2ncc3nc(Nc4c(Cl)cc(F)cc4Cl)n([C@H]4CC[C@@H](C(N)=O)CC4)c3n2)C1 [Example 799, (1S,4s)-4-(2-((R)-1-acetylpiperidin-3-ylamino)-8-(2,6-dichloro-4-fluorophenylamino)-9H-purin-9-yl)cyclohexanecarboxamide] |  | pIC50 [2]: < 6.00 |
| CC(=O)N1CCC[C@@H](Nc2ncc3nc(Nc4c(Cl)cccc4Cl)n([C@H]4CC[C@@H](C(N)=O)CC4)c3n2)C1 [Example 800, (1S,4s)-4-(2-((R)-1-acetylpiperidin-3-ylamino)-8-(2,6-dichlorophenylamino)-9H-purin-9-yl)cyclohexanecarboxamide] |  | pIC50 [2]: < 6.00 |
| N#Cc1cc(F)c(Nc2nc3cnc(N[C@@H]4CCOC[C@H]4F)nc3n2[C@H]2CC[C@@H](C(N)=O)CC2)c(F)c1 [Example 801, (1S,4s)-4-(8-(4-cyano-2,6-difluorophenylamino)-2-((3S,4R)-3-fluorotetrahydro-2H-pyran-4-ylamino)-9H-purin-9-yl)cyclohexanecarboxamide] |  | pIC50 [2]: > 6.60 |
| C[C@]1(C(N)=O)CC[C@@H](n2c(Nc3c(Cl)cc(Cl)cc3Cl)nc3cnc(N[C@H]4CCOC[C@@H]4F)nc32)CC1 [Example 802, (1R,4s)-4-(2-(((3R,4S)-3-fluorotetrahydro-2H-pyran-4-yl)amino)-8-((2,4,6-trichlorophenyl)amino)-9H-purin-9-yl)-1-methylcyclohexane-1-carboxamide] |  | pIC50 [2]: > 6.60 |
| (R)-isopropyl 3-(9-((1s,4S)-4- carbamoylcyclohexyl)-8-(2-chloro-4- cyano-6-fluorophenylamino)-9H-purin- 2-ylamino)piperidine-1-carboxylate [Example 776] |  | pIC50 (Lox-IMVI melanoma cell line, anti-proliferative assay, read-out: Activity (IC50 activity level)): 6.00 to 6.30 |
| (R)-methyl 3-(9-((1s,4S)-4- carbamoylcyclohexyl)-8-(2,3,4- trifluorophenylamino)-9H-purin-2- ylamino)piperidine-1-carboxylate [Example 414] |  | pIC50 (Lox-IMVI anti-proliferative assay, IC50 activity level, read-out: Activity): < 6.00 |
